Measurements from the supplement of paper PMC10307832.

Columns and labels:
Assay in all cases: relative viability (nuclei count vs DMSO), 5 days (fraction); higher = more cells survive
CAP-232 + Lapatinib = compound: C[C@H]([C@@H](C(=O)N)NC(=O)[C@@H]1CSSC[C@@H](C(=O)N[C@H](C(=O)N[C@@H](C(=O)N[C@H](C(=O)N1)CCCCN)CC2=CNC3=CC=CC=C32)CC4=CC=C(C=C4)O)NC(=O)[C@@H](CC5=CC=CC=C5)N)O [CAP-232] + CS(=O)(=O)CCNCc1ccc(-c2ccc3ncnc(Nc4ccc(OCc5cccc(F)c5)c(Cl)c4)c3c2)o1 [Lapatinib] (partner 2 µM)
How it was run: (§1)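 Relative viability equals treated-well nuclei counts divided by vehicle-well nuclei counts. Counts came from 4× images of lung cancer cell lines grown in 1536-well plates for 5 days after pin-tool dosing on the day after seeding. Dosing used one drug alone or a fixed anchor-drug dose plus five library-drug doses (not always all listed) in √10 steps, and values are medians of duplicate plates.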

CAP-232 + Alpelisib = compound: C[C@H]([C@@H](C(=O)N)NC(=O)[C@@H]1CSSC[C@@H](C(=O)N[C@H](C(=O)N[C@@H](C(=O)N[C@H](C(=O)N1)CCCCN)CC2=CNC3=CC=CC=C32)CC4=CC=C(C=C4)O)NC(=O)[C@@H](CC5=CC=CC=C5)N)O [CAP-232] + Cc1nc(NC(=O)N2CCC[C@H]2C(N)=O)sc1-c1ccnc(C(C)(C)C(F)(F)F)c1 [Alpelisib] (partner 2 µM)
How it was run: as §1

CAP-232 + Dasatinib = compound: C[C@H]([C@@H](C(=O)N)NC(=O)[C@@H]1CSSC[C@@H](C(=O)N[C@H](C(=O)N[C@@H](C(=O)N[C@H](C(=O)N1)CCCCN)CC2=CNC3=CC=CC=C32)CC4=CC=C(C=C4)O)NC(=O)[C@@H](CC5=CC=CC=C5)N)O [CAP-232] + Cc1nc(Nc2ncc(C(=O)Nc3c(C)cccc3Cl)s2)cc(N2CCN(CCO)CC2)n1 [Dasatinib] (partner 0.075 µM)
How it was run: as §1

CAP-232 + AZD7762 = compound: C[C@H]([C@@H](C(=O)N)NC(=O)[C@@H]1CSSC[C@@H](C(=O)N[C@H](C(=O)N[C@@H](C(=O)N[C@H](C(=O)N1)CCCCN)CC2=CNC3=CC=CC=C32)CC4=CC=C(C=C4)O)NC(=O)[C@@H](CC5=CC=CC=C5)N)O [CAP-232] + NC(=O)Nc1cc(-c2cccc(F)c2)sc1C(=O)N[C@H]1CCCNC1 [AZD7762] (partner 0.2 µM)
How it was run: as §1

CAP-232 + Phenformin = compound: C[C@H]([C@@H](C(=O)N)NC(=O)[C@@H]1CSSC[C@@H](C(=O)N[C@H](C(=O)N[C@@H](C(=O)N[C@H](C(=O)N1)CCCCN)CC2=CNC3=CC=CC=C32)CC4=CC=C(C=C4)O)NC(=O)[C@@H](CC5=CC=CC=C5)N)O [CAP-232] + N=C(N)NC(=N)NCCc1ccccc1 [Phenformin] (partner 250 µM)
How it was run: as §1

| Cell Line | relative viability (CAP-232 + Lapatinib; first compound 0.4 µM) | relative viability (CAP-232 + Lapatinib; first compound 1.265 µM) | relative viability (CAP-232 + Lapatinib; first compound 4 µM) | relative viability (CAP-232 + Lapatinib; first compound 12.65 µM) | relative viability (CAP-232 + Alpelisib; first compound 0.4 µM) | relative viability (CAP-232 + Alpelisib; first compound 1.265 µM) | relative viability (CAP-232 + Alpelisib; first compound 4 µM) | relative viability (CAP-232 + Alpelisib; first compound 12.65 µM) | relative viability (CAP-232 + Dasatinib; first compound 0.4 µM) | relative viability (CAP-232 + Dasatinib; first compound 1.265 µM) | relative viability (CAP-232 + Dasatinib; first compound 4 µM) | relative viability (CAP-232 + Dasatinib; first compound 12.65 µM) | relative viability (CAP-232 + AZD7762; first compound 0.4 µM) | relative viability (CAP-232 + AZD7762; first compound 1.265 µM) | relative viability (CAP-232 + AZD7762; first compound 4 µM) | relative viability (CAP-232 + AZD7762; first compound 12.65 µM) | relative viability (CAP-232 + Phenformin; first compound 0.4 µM) | relative viability (CAP-232 + Phenformin; first compound 1.265 µM) | relative viability (CAP-232 + Phenformin; first compound 4 µM) | relative viability (CAP-232 + Phenformin; first compound 12.65 µM) |
| --- | --- | --- | --- | --- | --- | --- | --- | --- | --- | --- | --- | --- | --- | --- | --- | --- | --- | --- | --- | --- |
| 201T | 1.11 | 0.98 | 1.04 | 1.04 | 1.05 | 0.975 | 0.992 | 1.04 | 0.536 | 0.549 | 0.614 | 0.556 | 0.636 | 0.716 | 0.643 | 0.643 | 0.487 | 0.419 | 0.416 | 0.443 |
| A549 | 1.1 | 1 | 1.05 | 0.42 | 0.659 | 0.653 | 0.734 | 0.348 |  |  |  |  |  |  |  |  | 0.164 | 0.183 | 0.146 | 0.113 |
| A-427 | 1.09 | 1.04 | 1.17 | 1.09 | 1.08 | 1.04 | 1.06 | 1.08 | 0.646 | 0.467 | 0.679 | 0.76 | 0.72 | 0.754 | 0.811 | 0.746 | 0.249 | 0.332 | 0.259 | 0.312 |
| ABC-1 | 1 | 1.12 | 0.887 | 1.26 | 1.05 | 1.15 | 1.24 | 0.504 | 0.582 | 0.562 | 0.53 | 0.448 | 0.883 | 0.541 | 0.803 | 0.692 | 0.249 | 0.243 | 0.215 | 0.186 |
| BEN | 0.776 | 0.661 | 0.583 | 0.575 | 1.03 | 1.01 | 1.06 | 0.858 | 0.39 | 0.261 | 0.264 | 0.424 | 0.789 | 0.714 | 0.7 | 0.553 | 0.246 | 0.231 | 0.231 | 0.221 |
| CAL-12T | 0.528 | 0.612 | 0.644 | 0.736 | 1.11 | 1.24 | 1.42 | 0.726 | 0.32 | 0.409 | 0.521 | 0.138 | 0.753 | 0.596 | 0.664 | 0.706 | 0.491 | 0.506 | 0.593 | 0.355 |
| COR-L23 | 1.3 | 0.961 | 1.08 | 0.845 | 0.725 | 0.754 | 0.701 | 0.616 | 0.506 | 0.575 | 0.531 | 0.342 |  |  |  |  | 0.497 | 0.47 | 0.468 | 0.372 |
| COR-L 105 | 0.333 | 0.376 | 0.354 | 0.33 | 1.09 | 0.917 | 1.16 | 0.594 | 0.337 | 0.352 | 0.273 | 0.249 |  |  |  |  | 0.423 | 0.429 | 0.501 | 0.287 |
| ChaGo-K-1 |  |  |  |  |  |  |  |  | 0.666 | 0.611 | 0.614 | 0.506 | 0.869 | 0.868 | 0.916 | 0.817 | 0.487 | 0.466 | 0.601 | 0.505 |
| EKVX | 0.211 | 0.203 | 0.191 | 0.171 | 0.806 | 0.969 | 0.833 | 0.715 | 0.457 | 0.605 | 0.499 | 0.509 | 0.899 | 0.712 | 0.699 | 0.471 | 0.232 | 0.218 | 0.23 | 0.233 |
| EMC-BAC-2 | 0.951 | 0.914 | 0.928 | 0.917 | 0.78 | 0.718 | 0.743 | 0.623 | 0.36 | 0.31 | 0.353 | 0.28 | 1.28 | 1.05 | 1.12 | 0.828 | 0.541 | 0.498 | 0.526 | 0.465 |
| EPLC-272H | 1.25 | 0.86 | 1.04 | 0.971 | 0.895 | 0.959 | 0.988 | 0.941 | 0.402 | 0.306 | 0.321 | 0.386 | 0.287 | 0.165 | 0.228 | 0.209 | 0.276 | 0.285 | 0.319 | 0.322 |
| H3255 | 0.317 | 0.226 | 0.219 | 0.0844 | 0.759 | 0.741 | 0.633 | 0.503 | 0.352 | 0.353 | 0.455 | 0.338 | 0.979 | 0.869 | 0.898 | 0.756 | 0.746 | 0.309 | 0.341 | 0.504 |
| HARA | 0.717 | 0.613 | 0.691 | 0.732 | 0.791 | 0.847 | 0.876 | 0.58 | 0.266 | 0.256 | 0.305 | 0.27 | 0.397 | 0.576 | 0.267 | 0.315 | 0.538 | 0.5 | 0.463 | 0.515 |
| HCC-15 | 0.971 | 0.8 | 0.934 | 0.654 | 0.935 | 0.878 | 0.86 | 0.824 | 0.629 | 0.601 | 0.693 | 0.262 | 1.36 | 1.28 | 1.34 | 1.14 | 0.477 | 0.465 | 0.481 | 0.236 |
| HCC-44 | 1.14 | 1.03 | 1.05 | 0.987 | 0.898 | 0.768 | 0.843 | 0.75 |  |  |  |  | 0.995 | 1.06 | 1.04 | 0.986 | 0.392 | 0.128 | 0.194 | 0.171 |
